In patent US11155586B2, “Cystine knot scaffold platform” (Genentech, Inc., priority 2015, dated 2021):
Positions of bridges follow the written chain, without caps; N, C: chain ends. Residues, ends and D or L forms follow the SMILES beside them.

Tests used:
hVEGF(8-109) = biological target: T1, hVEGF(8-109) (Homo sapiens, UniProt P15692); assay: Spot phage ELISA; type: binding
T1 construct: hVEGF(8-109) or BSA were coated on 384-well MAXISORP™ immunoplates
T1 sequence (P15692 214-315): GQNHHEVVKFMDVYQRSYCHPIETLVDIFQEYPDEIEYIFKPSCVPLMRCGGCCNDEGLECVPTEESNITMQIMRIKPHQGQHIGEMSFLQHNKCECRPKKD
Procedure: After four rounds of binding selection, individual phage clones were picked and inoculated into 450 μl 2YT media containing 50 µg/ml Carbenecillin and M13-KO7 helper phage in 96-well blocks, which were grown at 37° C. overnight. The supernatant was analyzed with spot phage ELISA as follows: hVEGF(8-109) or BSA were coated on 384-well MAXISORP™ immunoplates and phage supernatant diluted (1:3) with PBT buffer was added to the wells. The plates were washed and bound phage was detected with anti-M13-HRP followed by TMB substrate. In these assays, phage binding to BSA alone was tested in parallel to assess background binding. Clones whose binding signals for hVEGF-A (8-109) were more than 3 times higher than to BSA (background) were considered positive. Positive clones were subjected to DNA sequence analysis.

hVEGF-A (8-109) = biological target: T2, hVEGF-A (8-109) (Homo sapiens, UniProt P15692); assay: SPR binding assay (BIACORE 3000, 37° C.)
T2 sequence (P15692 34-135 isoform P15692-4): T1 sequence (P15692 214-315)
Procedure: Depending on the format of the assay either a streptavidin sensor (SA) or a dextran-coated (CM5) sensor was utilized as described below.
For use with the SA sensor, VEGF-A was first biotinylated (no more than 2 biotin/VEGF-A) by incubating the protein with EZ-link NHS-PEG4-Biotin (Pierce) in a 1:1.5 molar ratio respectively, in PBS for 2 hours on ice. Reaction was then quenched by addition of 10 molar excess of Glycine pH 8.0 and the sample was buffer exchanged into PBS using an Amicon 0.5 mL 3000 MWCO ultra-centrifugal filters (EMD Millipore). The biotinylation state of the protein was verified by LC-MS analysis. Biotinylated VEGF-A was then captured on the surface until a resonance unit (RU) signal of about ˜400. For immobilization of VEGF-A on CM5 sensor, the surface was first activated with a mixture of N-ethyl-N′-(3-dimethylaminopropyl)carbodiimide hydrochloride and N-hydroxysuccinimide (EDC/NHS) according to the supplier instructions. VEGF-A was then diluted into coupling buffer (0.1 M Acetate Buffer, pH 5.0) and injected until the signal reached about ˜400 RU followed by a wash with 1 M ethanolamine pH 8.0 to quench remaining activated sites.
Following the capture step, a series of the peptide concentrations were prepared in HBS-EP buffer with matching DMSO concentrations to 0.1% and injected at a flow rate of […]. The resulting sensorgrams were then analyzed using a 1:1 binding model to obtain kinetic data and affinities using Scrubber 2.0 (BioLogic Software).

[1] = loop 2 variants based on VEGF_CKP9.63 framework, Table 27
[2] = Table 37, surface plasmon resonance, VEGF-A

Structure (SMILES)	S/N (signal to noise ratio as compared to BSA control) (hVEGF(8-109); Table 27)	ELISA (hVEGF(8-109); [1])	kd (hVEGF-A (8-109); hVEGF-A (8-109), Table 29)	kd (hVEGF-A (8-109); [2])	also measured
CSCC[C@@H]1NC(=O)[C@H](C(C)C)NC(=O)[C@H](CC(=O)O)NC(=O)[C@@H](NC(=O)CN)CSSC[C@@H](C(=O)N[C@H](C(=O)N[C@H]2CSSC[C@@H](C(=O)NCC(=O)O)NC(=O)[C@H](CO)NC(=O)[C@H](CC(N)=O)NC(=O)[C@H](Cc3ccc(O)cc3)NC(=O)[C@H](Cc3c[nH]c4ccccc34)NC(=O)[C@H](Cc3c[nH]cn3)NC2=O)C(C)C)NC(=O)CNC(=O)[C@H](C)NC(=O)[C@H](CC(C)C)NC(=O)[C@@H]2CSSC[C@H](NC(=O)CNC(=O)[C@H](Cc3c[nH]c4ccccc34)NC(=O)[C@H](Cc3ccc(O)cc3)NC(=O)[C@@H]3CCCN3C(=O)[C@H](CCC(N)=O)NC1=O)C(=O)NCC(=O)N[C@@H](CCC(=O)O)C(=O)N[C@@H](CC(N)=O)C(=O)N[C@@H](Cc1ccccc1)C(=O)N[C@@H](CC(C)C)C(=O)N2 [VEGF_CKP9.63.1] (H-GCDVMQPYWGCGENFLCLAGCVCHWYNSCG-OH; disulfide 2-21, 11-17, 23-29 (inferred); N-terminus and C-terminus assumed)	25.2	2.0	0.37		
CSCC[C@@H]1NC(=O)[C@H](CCC(=O)O)NC(=O)[C@@H]2CSSC[C@H](NC(=O)[C@H](CC(=O)O)NC(=O)[C@H](Cc3ccccc3)NC(=O)[C@H](CC(=O)O)NC1=O)C(=O)N[C@@H](CC(C)C)C(=O)N[C@@H](C)C(=O)NCC(=O)N[C@H](C(=O)N[C@H](C(=O)N[C@H]1CSSC[C@@H](C(=O)NCC(=O)O)NC(=O)[C@H](CO)NC(=O)[C@H](CC(N)=O)NC(=O)[C@H](Cc3ccc(O)cc3)NC(=O)[C@H](Cc3c[nH]c4ccccc34)NC(=O)[C@H](Cc3c[nH]cn3)NC1=O)C(C)C)CSSC[C@H](NC(=O)CN)C(=O)N[C@@H](CC(=O)O)C(=O)N[C@@H](C(C)C)C(=O)N[C@@H](CCSC)C(=O)N[C@@H](CCC(N)=O)C(=O)N1CCC[C@H]1C(=O)N[C@@H](Cc1ccc(O)cc1)C(=O)N[C@@H](Cc1c[nH]c3ccccc13)C(=O)NCC(=O)N2 [VEGF_CKP9.63.44] (H-GCDVMQPYWGCEMDFDCLAGCVCHWYNSCG-OH; disulfide 2-21, 11-17, 23-29 (inferred); N-terminus and C-terminus assumed)	19.5	1.7	0.11		
CC[C@H](C)[C@@H]1NC(=O)[C@H](CC(N)=O)NC(=O)[C@@H](NC(=O)CN)CSSC[C@@H](C(=O)N[C@H](C(=O)N[C@H]2CSSC[C@@H](C(=O)NCC(=O)O)NC(=O)[C@H](CO)NC(=O)[C@H](CCC(N)=O)NC(=O)[C@H](Cc3ccc(O)cc3)NC(=O)[C@H](Cc3ccc(O)cc3)NC(=O)[C@H](CCC(N)=O)NC2=O)C(C)C)NC(=O)CNC(=O)[C@H](C)NC(=O)[C@H](CC(C)C)NC(=O)[C@@H]2CSSC[C@H](NC(=O)CNC(=O)[C@H](Cc3c[nH]c4ccccc34)NC(=O)[C@H](Cc3ccccc3)NC(=O)[C@@H]3CCCN3C(=O)[C@H](CC(C)C)NC(=O)[C@H](CCSC)NC1=O)C(=O)NCC(=O)N[C@@H](CCC(N)=O)C(=O)N[C@@H](CO)C(=O)N[C@@H](Cc1ccccc1)C(=O)N[C@@H](CCC(=O)O)C(=O)N2 [VEGF_CKP9.54.1] (H-GCNIMLPFWGCGQSFECLAGCVCQYYQSCG-OH; disulfide 2-21, 11-17, 23-29 (inferred); N-terminus and C-terminus assumed)				0.36	S/N (signal to noise ratio as compared to BSA control) (hVEGF(8-109); Table 26): 29.9; ELISA (hVEGF(8-109); loop 2 variants based on 9.54 framework, Table 26): 2.4
CSCC[C@@H]1NC(=O)[C@H](C(C)C)NC(=O)[C@H](CC(=O)O)NC(=O)[C@@H](NC(=O)CN)CSSC[C@@H](C(=O)N[C@H](C(=O)N[C@H]2CSSC[C@@H](C(=O)NCC(=O)O)NC(=O)[C@H](CO)NC(=O)[C@H](CC(N)=O)NC(=O)[C@H](Cc3ccc(O)cc3)NC(=O)[C@H](Cc3c[nH]c4ccccc34)NC(=O)[C@H](Cc3c[nH]cn3)NC2=O)C(C)C)NC(=O)CNC(=O)[C@H](C)NC(=O)[C@H](CC(C)C)NC(=O)[C@@H]2CSSC[C@H](NC(=O)CNC(=O)[C@H](Cc3c[nH]c4ccccc34)NC(=O)[C@H](Cc3ccc(O)cc3)NC(=O)[C@@H]3CCCN3C(=O)[C@H](CCC(N)=O)NC1=O)C(=O)NCC(=O)N[C@@H](CCC(=O)O)C(=O)N[C@@H](CO)C(=O)N[C@@H](CC(C)C)C(=O)N[C@@H](CO)C(=O)N2 [VEGF_CKP9.63.69] (H-GCDVMQPYWGCGESLSCLAGCVCHWYNSCG-OH; disulfide 2-21, 11-17, 23-29 (inferred); N-terminus and C-terminus assumed)	23.7	2.9	0.20		
CSCC[C@@H]1NC(=O)[C@H](CC(=O)O)NC(=O)[C@H](CCCNC(=N)N)NC(=O)CNC(=O)[C@@H]2CSSC[C@H](NC(=O)[C@H](CC(=O)O)NC1=O)C(=O)N[C@@H](CC(C)C)C(=O)N[C@@H](C)C(=O)NCC(=O)N[C@H](C(=O)N[C@H](C(=O)N[C@H]1CSSC[C@@H](C(=O)NCC(=O)O)NC(=O)[C@H](CO)NC(=O)[C@H](CC(N)=O)NC(=O)[C@H](Cc3ccc(O)cc3)NC(=O)[C@H](Cc3c[nH]c4ccccc34)NC(=O)[C@H](Cc3c[nH]cn3)NC1=O)C(C)C)CSSC[C@H](NC(=O)CN)C(=O)N[C@@H](CC(=O)O)C(=O)N[C@@H](C(C)C)C(=O)N[C@@H](CCSC)C(=O)N[C@@H](CCC(N)=O)C(=O)N1CCC[C@H]1C(=O)N[C@@H](Cc1ccc(O)cc1)C(=O)N[C@@H](Cc1c[nH]c3ccccc13)C(=O)NCC(=O)N2 [VEGF_CKP9.63.27] (H-GCDVMQPYWGCGRDMDCLAGCVCHWYNSCG-OH; disulfide 2-21, 11-17, 23-29 (inferred); N-terminus and C-terminus assumed)	26.0	2.1	0.15		
CSCC[C@@H]1NC(=O)[C@H](CC(C)C)NC(=O)[C@H](CCC(N)=O)NC(=O)[C@@H](NC(=O)CN)CSSC[C@@H](C(=O)N[C@H](C(=O)N[C@H]2CSSC[C@@H](C(=O)NCC(=O)O)NC(=O)[C@H](CO)NC(=O)[C@H](CCC(N)=O)NC(=O)[C@H](Cc3ccc(O)cc3)NC(=O)[C@H](Cc3c[nH]c4ccccc34)NC(=O)[C@H](Cc3c[nH]cn3)NC2=O)C(C)C)NC(=O)CNC(=O)[C@H](C)NC(=O)[C@H](CC(C)C)NC(=O)[C@@H]2CSSC[C@H](NC(=O)CNC(=O)[C@H](Cc3c[nH]c4ccccc34)NC(=O)[C@H](Cc3ccccc3)NC(=O)[C@@H]3CCCN3C(=O)[C@H](CCC(N)=O)NC1=O)C(=O)N[C@@H](CCCCN)C(=O)N[C@@H](CCC(N)=O)C(=O)N[C@@H](CC(=O)O)C(=O)N[C@@H](CO)C(=O)N[C@@H](CC(=O)O)C(=O)N2 [VEGF_CKP9] (H-GCQLMQPFWGCKQDSDCLAGCVCHWYQSCG-OH; disulfide 2-21, 11-17, 23-29 (inferred); N-terminus and C-terminus assumed)				40	S/N (signal to noise ratio as compared to BSA control) (hVEGF(8-109); Table 19): 36.0; S/N (signal to noise ratio as compared to BSA control) (hVEGF(8-109); Table 22): 7.4; S/N (signal to noise ratio as compared to BSA control) (hVEGF(8-109); Table 23): 11.6; S/N (signal to noise ratio as compared to BSA control) (hVEGF(8-109); Table 24): 7.4; ELISA (hVEGF(8-109); VEGF_CKP9 Loop1/Loop5 affinity-matured variants, Table 24): 0.4; ELISA (hVEGF(8-109); VEGF_CKP9 Loop1 affinity-matured variants, Table 22): 0.4; ELISA (hVEGF(8-109); VEGF_CKP9 Loop5 affinity-matured variants, Table 23): 0.9; ELISA (hVEGF(8-109); spot phage ELISA signal, EETI-II-based binders against hVEGF-A, Table 19): 3.3
